In brackets after ≈: the same amount, converted by molar mass.
Tests used:
Staphylococcus aureus [1] = assay: Antibacterial activity against Staphylococcus aureus assessed as inhibition of bacterial growth incubated for overnight by CLSI based method; type: functional
Candida albicans [2] = assay: Antifungal activity against Candida albicans assessed as inhibition of fungal growth incubated for 24 hrs by agar well diffusion method; type: functional
Aspergillus niger [3] = assay: Antifungal activity against Aspergillus niger assessed as inhibition of fungal growth incubated for 24 hrs by agar well diffusion method; type: functional
Salmonella typhi = assay: Antibacterial activity against Salmonella typhi assessed as inhibition of bacterial growth incubated for 24 hrs by agar well diffusion method; type: functional, Salmonella enterica subsp. enterica serovar Typhi
[4] = target: T1, Enoyl-[acyl-carrier-protein] reductase [NADH] (Mycobacterium tuberculosis) (UniProt P9WGR1); assay: Inhibition of InhA in Mycobacterium tuberculosis H37Rv assessed antitubercular activity by measuring inhibition of bacterial growth incubated for 7 days by MABA assay; settings: time 7.0 day
T1 sequence (whole entry): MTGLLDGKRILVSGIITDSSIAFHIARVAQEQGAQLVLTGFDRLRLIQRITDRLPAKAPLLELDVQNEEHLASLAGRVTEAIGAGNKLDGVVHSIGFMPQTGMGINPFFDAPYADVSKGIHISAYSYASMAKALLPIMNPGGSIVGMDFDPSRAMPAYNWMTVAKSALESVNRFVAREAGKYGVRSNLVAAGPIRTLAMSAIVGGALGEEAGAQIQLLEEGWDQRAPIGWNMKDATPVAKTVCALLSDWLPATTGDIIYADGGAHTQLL

Klebsiella aerogenes [5] = assay: Antibacterial activity against Enterobacter aerogenes assessed as inhibition of bacterial growth incubated for 24 hrs by agar well diffusion method; type: functional
Aspergillus niger [6] = assay: Antifungal activity against Aspergillus niger assessed as inhibition of […] growth incubated for overnight by CLSI based method; type: functional
Saccharomyces cerevisiae [7] = assay: Antifungal activity against Saccharomyces cerevisiae assessed as inhibition of […] growth incubated for overnight by CLSI based method; type: functional
Candida albicans [8] = assay: Antifungal activity against Candida albicans assessed as inhibition of […] growth incubated for overnight by CLSI based method; type: functional
[9] = Cytotoxicity against human HEK293 cells assessed as inhibition of cell growth at 25 uM incubated for 48 hrs by MTT assay; type: cell-based
Bacillus cereus = assay: Antibacterial activity against Bacillus cereus assessed as inhibition of bacterial growth incubated for 24 hrs by agar well diffusion method; type: functional
Escherichia coli = assay: Antibacterial activity against Escherichia coli assessed as inhibition of bacterial growth incubated for 24 hrs by agar well diffusion method; type: functional
Shigella boydii [10] = assay: Antibacterial activity against Shigella boydii assessed as inhibition of bacterial growth incubated for 24 hrs by agar well diffusion method; type: functional
Klebsiella aerogenes [11] = assay: Antibacterial activity against Enterobacter aerogenes assessed as inhibition of bacterial growth incubated for overnight by CLSI based method; type: functional
[12] = test system: Salmonella enterica subsp. enterica serovar Abony; assay: Antibacterial activity against Salmonella abony assessed as inhibition of bacterial growth incubated for 24 hrs by agar well diffusion method; type: functional
Bacillus subtilis = assay: Antibacterial activity against Bacillus subtilis assessed as inhibition of bacterial growth incubated for 24 hrs by agar well diffusion method; type: functional
Saccharomyces cerevisiae [13] = assay: Antifungal activity against Saccharomyces cerevisiae assessed as inhibition of fungal growth incubated for 24 hrs by agar well diffusion method; type: functional
Staphylococcus aureus [14] = assay: Antibacterial activity against Staphylococcus aureus assessed as inhibition of bacterial growth incubated for 24 hrs by agar well diffusion method; type: functional
Pseudomonas aeruginosa = assay: Antibacterial activity against Pseudomonas aeruginosa assessed as inhibition of bacterial growth incubated for 24 hrs by agar well diffusion method; type: functional
Shigella boydii [15] = assay: Antibacterial activity against Shigella boydii assessed as inhibition of bacterial growth incubated for overnight by CLSI based method; type: functional

Row | Structure (SMILES) | MIC (Staphylococcus aureus [1]) | diameter of the inhibition zone (DIZ) (Candida albicans [2]) | diameter of the inhibition zone (DIZ) (Aspergillus niger [3]) | diameter of the inhibition zone (DIZ) (Salmonella typhi) | MIC [4] | diameter of the inhibition zone (DIZ) (Klebsiella aerogenes [5]) | MIC (Aspergillus niger [6]) | MIC (Saccharomyces cerevisiae [7]) | MIC (Candida albicans [8]) | inhibition at 48 h, 25 µM [9] | diameter of the inhibition zone (DIZ) (Bacillus cereus) | diameter of the inhibition zone (DIZ) (Escherichia coli) | diameter of the inhibition zone (DIZ) (Shigella boydii [10]) | MIC (Klebsiella aerogenes [11]) | diameter of the inhibition zone (DIZ) [12] | diameter of the inhibition zone (DIZ) (Bacillus subtilis) | diameter of the inhibition zone (DIZ) (Saccharomyces cerevisiae [13]) | diameter of the inhibition zone (DIZ) (Staphylococcus aureus [14]) | diameter of the inhibition zone (DIZ) (Pseudomonas aeruginosa) | MIC (Shigella boydii [15])
1 | Cc1ccc([N+](=O)[O-])cc1-n1cc(COc2ccc3c(c2)CCC3)nn1 | 50 µg/mL (≈ 143 µM) | 15 mm | 6 mm | 11 mm | 12.5 µM (≈ 4.38 µg/mL) | 11 mm | 155 µg/mL (≈ 442 µM) | 150 µg/mL (≈ 428 µM) | 40 µg/mL (≈ 114 µM) | 26.5% | 12 mm | 11 mm | 11 mm | 60 µg/mL (≈ 171 µM) | 9 mm | 12 mm | 6 mm | 13 mm | 9 mm | 60 µg/mL (≈ 171 µM)
2 | Brc1ccccc1-n1cc(COc2ccc3c(c2)CCC3)nn1 | 90 µg/mL (≈ 243 µM) | 9 mm | 7 mm | 11 mm | 6.25 µM (≈ 2.31 µg/mL) | 12 mm | 170 µg/mL (≈ 459 µM) | 110 µg/mL (≈ 297 µM) | 130 µg/mL (≈ 351 µM) | 16.5% | 9 mm | 11 mm | 12 mm | 120 µg/mL (≈ 324 µM) | 13 mm | 10 mm | 10 mm | 16 mm | 13 mm | 140 µg/mL (≈ 378 µM)
3 | COc1ccc(-n2cc(COc3ccc4c(c3)CCC4)nn2)cc1 | 160 µg/mL (≈ 498 µM) | 11 mm | 6 mm | 8 mm | 25 µM (≈ 8.03 µg/mL) | 9 mm | 180 µg/mL (≈ 560 µM) | 210 µg/mL (≈ 653 µM) | 80 µg/mL (≈ 249 µM) | 21.1% | 5 mm | 10 mm | 11 mm | 130 µg/mL (≈ 405 µM) | 12 mm | 10 mm | 5 mm | 8 mm | 12 mm | 70 µg/mL (≈ 218 µM)

Reference: ChEMBL document CHEMBL4699525, “Design and synthesis of new indanol-1,2,3-triazole derivatives as potent antitubercular and antimicrobial agents” (Bioorg Med Chem Lett, 2020)
